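Test compounds were applied to cells in 96-well plates for 48 hours at 5 doses. TGI denotes the concentration required for complete inhibition of growth.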
Tests used:
Experiment in all cases: NCI anticancer screen, dose series, 48 h
DU-145 prostate = tested on: DU-145 prostate
COLO 205 colon = tested on: COLO 205 colon
MOLT-4 leukemia = tested on: MOLT-4 leukemia
HCT-116 colon = tested on: HCT-116 colon
BT-549 breast = tested on: BT-549 breast
NCI-H226 lung = tested on: NCI-H226 lung
TK-10 renal = tested on: TK-10 renal
SK-MEL-28 melanoma = tested on: SK-MEL-28 melanoma
786-0 renal = tested on: 786-0 renal
T-47D breast = tested on: T-47D breast
MDA-N = tested on: MDA-N
SF-268 CNS = tested on: SF-268 CNS
UACC-62 melanoma = tested on: UACC-62 melanoma
M14 melanoma = tested on: M14 melanoma
KM12 colon = tested on: KM12 colon
UO-31 renal = tested on: UO-31 renal
HCC-2998 colon = tested on: HCC-2998 colon
OVCAR-8 ovarian = tested on: OVCAR-8 ovarian
PC-3 prostate = tested on: PC-3 prostate
SNB-75 CNS = tested on: SNB-75 CNS
IGROV1 ovarian = tested on: IGROV1 ovarian
HOP-62 NSCLC = tested on: HOP-62 NSCLC
NCI-H23 lung = tested on: NCI-H23 lung
A498 renal = tested on: A498 renal
OVCAR-4 ovarian = tested on: OVCAR-4 ovarian
LOX IMVI melanoma = tested on: LOX IMVI melanoma
OVCAR-3 ovarian = tested on: OVCAR-3 ovarian
EKVX NSCLC = tested on: EKVX NSCLC
HCT-15 colon = tested on: HCT-15 colon
HS 578T breast = tested on: HS 578T breast
MCF7 breast = tested on: MCF7 breast
RPMI-8226 leukemia = tested on: RPMI-8226 leukemia
RXF 393 renal = tested on: RXF 393 renal
SK-MEL-2 melanoma = tested on: SK-MEL-2 melanoma
OVCAR-5 ovarian = tested on: OVCAR-5 ovarian
HOP-92 NSCLC = tested on: HOP-92 NSCLC
SF-295 CNS = tested on: SF-295 CNS
MDA-MB-435 = tested on: MDA-MB-435
SN12C renal = tested on: SN12C renal
NCI/ADR-RES ovarian = tested on: NCI/ADR-RES ovarian
SK-OV-3 ovarian = tested on: SK-OV-3 ovarian
NCI-H460 lung = tested on: NCI-H460 lung
U251 CNS = tested on: U251 CNS
SW-620 colon = tested on: SW-620 colon
MDA-MB-231 breast = tested on: MDA-MB-231 breast
CAKI-1 renal = tested on: CAKI-1 renal
MALME-3M melanoma = tested on: MALME-3M melanoma
UACC-257 melanoma = tested on: UACC-257 melanoma
A549 NSCLC = tested on: A549 NSCLC
ACHN renal = tested on: ACHN renal
K-562 leukemia = tested on: K-562 leukemia
SR leukemia = tested on: SR leukemia
SNB-19 CNS = tested on: SNB-19 CNS

Measured: TGI

COC(=O)C1=C(C(=O)OC)c2cc(OC)ccc2C(C(=S)N(C)C)S1 (stereo not drawn)
> 100 µM: all assays above
